Data: PubChem BioAssay (NCI)
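In this assay, cells in 96-well plates receive the compound at five concentrations for 48 hours. Endpoints are linearly interpolated between the surrounding concentrations. At the GI50, growth is halved. TGI: concentration producing complete growth inhibition.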

How the values were obtained:
Test in all cases: NCI-60 cell line screen, 48 h
[1] = tested on: COLO 205 colon
[2] = tested on: MDA-MB-435
[3] = tested on: HCC-2998 colon
[4] = tested on: SNB-75 CNS
[5] = tested on: TK-10 renal
[6] = tested on: KM12 colon
[7] = tested on: ACHN renal
[8] = tested on: SF-539 CNS
[9] = tested on: OVCAR-5 ovarian
[10] = tested on: M14 melanoma
[11] = tested on: CCRF-CEM leukemia
[12] = tested on: OVCAR-4 ovarian
[13] = tested on: BT-549 breast
[14] = tested on: HOP-92 NSCLC
[15] = tested on: UACC-257 melanoma
[16] = tested on: HL-60(TB) leukemia
[17] = tested on: UO-31 renal
[18] = tested on: SN12C renal
[19] = tested on: RPMI-8226 leukemia
[20] = tested on: HCT-116 colon
[21] = tested on: NCI-H226 lung
[22] = tested on: NCI/ADR-RES ovarian
[23] = tested on: T-47D breast
[24] = tested on: A549 NSCLC
[25] = tested on: NCI-H522 lung
[26] = tested on: HT29 colon
[27] = tested on: SK-MEL-5 melanoma
[28] = tested on: NCI-H23 lung
[29] = tested on: SNB-19 CNS
[30] = tested on: SF-268 CNS
[31] = tested on: MALME-3M melanoma
[32] = tested on: EKVX NSCLC
[33] = tested on: IGROV1 ovarian
[34] = tested on: SF-295 CNS
[35] = tested on: HCT-15 colon
[36] = tested on: MCF7 breast
[37] = tested on: HOP-62 NSCLC
[38] = tested on: LOX IMVI melanoma
[39] = tested on: OVCAR-3 ovarian
[40] = tested on: SW-620 colon
[41] = tested on: OVCAR-8 ovarian
[42] = tested on: MOLT-4 leukemia
[43] = tested on: A498 renal
[44] = tested on: SK-OV-3 ovarian
[45] = tested on: DU-145 prostate
[46] = tested on: UACC-62 melanoma
[47] = tested on: 786-0 renal
[48] = tested on: NCI-H460 lung
[49] = tested on: PC-3 prostate
[50] = tested on: U251 CNS
[51] = tested on: SK-MEL-28 melanoma
[52] = tested on: HS 578T breast
[53] = tested on: RXF 393 renal
[54] = tested on: MDA-MB-231 breast
[55] = tested on: SK-MEL-2 melanoma
[56] = tested on: SR leukemia

O=C(O)c1sccc1O
GI50 [1]: 60.1 µM
TGI [1]: > 100 µM
GI50 [2]: 27.1 µM
TGI [2]: > 100 µM
GI50 [3]: 36.6 µM
TGI [3]: > 100 µM
GI50 [4]: 15.9 µM
TGI [4]: > 100 µM
GI50 [5]: 89.6 µM
TGI [5]: > 100 µM
GI50 [6]: 30.6 µM
TGI [6]: > 100 µM
GI50 [7]: 28.6 µM
TGI [7]: > 100 µM
GI50 [8]: 28.8 µM
TGI [8]: > 100 µM
GI50 [9]: 76.3 µM
TGI [9]: > 100 µM
GI50 [10]: 27 µM
TGI [10]: > 100 µM
GI50 [11]: 31.9 µM
TGI [11]: > 100 µM
GI50 [12]: 26.4 µM
TGI [12]: > 100 µM
GI50 [13]: 21.6 µM
TGI [13]: > 100 µM
GI50 [14]: 24.9 µM
TGI [14]: > 100 µM
GI50 [15]: 47.2 µM
TGI [15]: > 100 µM
GI50 [16]: 33.9 µM
TGI [16]: 90.1 µM
GI50 [17]: 15.2 µM
TGI [17]: > 100 µM
GI50 [18]: 32.7 µM
TGI [18]: > 100 µM
GI50 [19]: 25.2 µM
TGI [19]: > 100 µM
GI50 [20]: 31.2 µM
TGI [20]: > 100 µM
GI50 [21]: > 100 µM
TGI [21]: > 100 µM
GI50 [22]: 40.5 µM
TGI [22]: > 100 µM
GI50 [23]: 33.3 µM
TGI [23]: > 100 µM
GI50 [24]: 50.3 µM
TGI [24]: > 100 µM
GI50 [25]: 25.4 µM
TGI [25]: 80.7 µM
GI50 [26]: 57.5 µM
TGI [26]: > 100 µM
GI50 [27]: 25.3 µM
TGI [27]: 99.2 µM
GI50 [28]: 37.3 µM
TGI [28]: > 100 µM
GI50 [29]: 41.3 µM
TGI [29]: > 100 µM
GI50 [30]: 33.2 µM
TGI [30]: > 100 µM
GI50 [31]: 83.4 µM
TGI [31]: > 100 µM
GI50 [32]: 21.7 µM
TGI [32]: > 100 µM
GI50 [33]: 21.8 µM
TGI [33]: > 100 µM
GI50 [34]: 34.8 µM
TGI [34]: > 100 µM
GI50 [35]: 32.1 µM
TGI [35]: > 100 µM
GI50 [36]: 31.5 µM
TGI [36]: > 100 µM
GI50 [37]: 22.2 µM
TGI [37]: > 100 µM
GI50 [38]: 26.4 µM
TGI [38]: > 100 µM
GI50 [39]: 32.7 µM
TGI [39]: > 100 µM
GI50 [40]: 31.4 µM
TGI [40]: > 100 µM
GI50 [41]: 47.7 µM
TGI [41]: > 100 µM
GI50 [42]: 34.9 µM
TGI [42]: > 100 µM
GI50 [43]: 52.3 µM
TGI [43]: > 100 µM
GI50 [44]: > 100 µM
TGI [44]: > 100 µM
GI50 [45]: 48 µM
TGI [45]: > 100 µM
GI50 [46]: 17.9 µM
TGI [46]: 52 µM
GI50 [47]: 60.9 µM
TGI [47]: > 100 µM
GI50 [48]: 33.5 µM
TGI [48]: > 100 µM
GI50 [49]: 24.2 µM
TGI [49]: > 100 µM
GI50 [50]: 34.7 µM
TGI [50]: > 100 µM
GI50 [51]: 32.2 µM
TGI [51]: > 100 µM
GI50 [52]: 24.9 µM
TGI [52]: > 100 µM
GI50 [53]: 32 µM
TGI [53]: > 100 µM
GI50 [54]: 16.4 µM
TGI [54]: 73.5 µM
GI50 [55]: 35.1 µM
TGI [55]: > 100 µM
GI50 [56]: 34.5 µM
TGI [56]: > 100 µM
